Results taken from ChEMBL document CHEMBL1134612, “A structure-based design approach to the development of novel, reversible AChE inhibitors” (J Med Chem, 2001).

Biological target: Acetylcholinesterase (Torpedo californica, UniProt P04058)
Sequence (P04058 whole entry): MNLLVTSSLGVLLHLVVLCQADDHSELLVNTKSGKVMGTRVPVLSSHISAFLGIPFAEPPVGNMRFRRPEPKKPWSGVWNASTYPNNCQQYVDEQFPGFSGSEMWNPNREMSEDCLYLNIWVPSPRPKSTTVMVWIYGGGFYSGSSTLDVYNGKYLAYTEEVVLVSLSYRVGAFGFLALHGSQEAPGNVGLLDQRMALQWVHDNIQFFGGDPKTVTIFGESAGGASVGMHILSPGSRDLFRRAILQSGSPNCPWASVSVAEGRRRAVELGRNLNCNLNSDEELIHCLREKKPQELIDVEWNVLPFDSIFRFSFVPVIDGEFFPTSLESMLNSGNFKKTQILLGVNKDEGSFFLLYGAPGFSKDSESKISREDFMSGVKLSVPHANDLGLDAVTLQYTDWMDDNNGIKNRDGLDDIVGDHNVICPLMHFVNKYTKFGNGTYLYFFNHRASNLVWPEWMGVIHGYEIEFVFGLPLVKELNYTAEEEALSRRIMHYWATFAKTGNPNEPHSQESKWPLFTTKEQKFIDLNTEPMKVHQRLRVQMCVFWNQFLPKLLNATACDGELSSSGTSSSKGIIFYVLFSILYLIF
Description: Inhibition of activity against Torpedo Ray acetylcholinesterase.

Row | Compound | IC50 [µM]
1 | O=C(c1cccc(CBr)c1)C(F)(F)F | 0.36
2 | Nc1c2c(nc3cccc(Cl)c13)CCCCC2 | 0.0024
3 | O=C(c1ccc(CNc2c3c(nc4cccc(Cl)c24)CCCCC3)s1)C(F)(F)F | 0.012
4 | OC(O)(CCCCCNc1c2c(nc3cccc(Cl)c13)CCCCC2)C(F)(F)F | 0.036
5 | Cc1nc2cccc(F)c2c(N)c1CSC1(C(F)(F)F)CCCO1 (stereo unspecified) | 0.018
6 | Cc1nc2ccccc2c(N)c1COCc1cccc(C(=O)C(F)(F)F)c1 | 0.003
7 | Cc1nc2cccc(F)c2c(N)c1CSCc1cccc(C(O)C(F)(F)F)c1 (stereo unspecified) | 11
8 | Cc1nc2cccc(F)c2c(N)c1CNC1(C(F)(F)F)CCC(=O)O1 (stereo unspecified) | 14
9 | Cc1nc2cccc(F)c2c(N)c1COCc1ccccc1 | 2
10 | Cc1nc2cccc(F)c2c(N)c1COCc1cccc(C(=O)C(F)(F)F)c1 | 0.0038
11 | Cc1nc2cccc(F)c2c(N)c1CN | 1.9
12 | CCOC(=O)c1c(C)nc2cccc(F)c2c1N | 2.6
13 | Cc1nc2cccc(F)c2c(N)c1CSCc1cccc(C(=O)C(F)(F)F)c1 | 0.003
14 | Cc1nc2cccc(Cl)c2c(N)c1COCc1cccc(C(=O)C(F)(F)F)c1 | 0.0051
15 | Cc1nc2cccc(Cl)c2c(N)c1CNC1(C(F)(F)F)CCC(=O)O1 (stereo unspecified) | 7.2
16 | CC(=O)c1cccc(CSCc2c(C)nc3cccc(F)c3c2N)c1 | 15
